The record followed here is ChEMBL document CHEMBL1157539, “Thousands of chemical starting points for antimalarial lead identification” (Nature, 2010).

For this test, the system named is Plasmodium falciparum. Put plainly: GSK_TCMDC: Inhibition of Plasmodium falciparum 3D7 in whole erythrocytes, using parasite LDH activity as an index of growth. It is filed as functional, organism-based. As to conditions: Plasmodium falciparum, 3D7.
Molecule `Cc1cc(N/N=C/c2ccccc2[N+](=O)[O-])c2cc(F)ccc2n1` displayed an XC50 of 665 nM.
As to `Cc1ccc2nc(C)cc(N/N=C/c3ccc([N+](=O)[O-])o3)c2c1`, the XC50 worked out at 751 nM.
Next, `CCN(CC)CCN(Cc1ccc(-c2ccc(Br)cc2)cc1)C(=O)Cn1c(CCc2cccc(F)c2F)nc(=O)c2ccccc21`: 788 nM; `Cc1ccccc1CNCC(O)c1cccc(C(F)(F)F)c1` (stereo not given): 881 nM; `O=C(/C=C/c1ccc(Cl)c(Cl)c1)NCCCCCN1CCC(c2c[nH]c3ccc(O)cc23)CC1`: 886 nM.
Consider `O=C(Nc1cccc(OC2CCN(Cc3ccccc3)CC2)c1)c1ccc([N+](=O)[O-])cc1`, for which the XC50 is 661 nM.
To `Cn1c(NC(=O)c2ccc(CNC(=O)c3ccc(O)c(-c4ccc(Cl)c(Cl)c4)c3)cc2)nc2ccccc21` belongs 842 nM; to `COc1ccc2nc(N3CCN(C(=O)OC(C)(C)C)CC3)nc(NCCCc3ccccc3)c2c1`, 687 nM; to `Oc1ccc(CCNc2nc(NCc3ccccc3-c3ccc(C(F)(F)F)cc3)nc(N3CCCNCC3)n2)cc1`, 866 nM.
Next, `CCc1cc(CNC2CCN(CCc3c(F)cnc4ccc(OC)nc34)CC2)cc2c1OCCO2`: 264 nM.
Next, `CCN(CC)CCCCOc1ccc2c(c1)C(=O)c1cc(OCCCCN(CC)CC)ccc1-2`: 759 nM; `CCCCOP(=O)(COc1ccc(CCN(CC(O)COc2cccc3[nH]c4ccccc4c23)CC(O)COc2cccc3[nH]c4ccccc4c23)cc1)C1CCCCC1` (stereo not given): 939 nM.
On to `NC1=NC(c2ccccc2)(c2ccccc2)C(=O)N1Cc1ccc(-c2ccncc2)cc1`, for which the XC50 was found to be 772 nM.
The molecule `CC1(C)N=C(N)N=C(N)N1OCCc1ccc2ccccc2c1` had an XC50 of 3.2 nM.
To `CC(Cc1ccc(C(C)(C)C)cc1)NCC(O)c1ccccc1` (stereo not given) belongs 1810 nM; to `CN(CCO)Cc1cccc(-c2ccc(NC(=O)c3cccc(C#N)c3)cc2)c1`, 796 nM.
Take `CC1CCC(NCc2ccc3c(CNC4CCC(C)CC4)c(O)ccc3c2O)CC1` (stereo not given): the XC50 is 116 nM.
To `O=C(/C=C/c1ccc(Cl)c(Cl)c1)NC1CCC(CN2CCC(Cc3cc4ccccc4[nH]3)CC2)CC1` (stereo not given) belongs 508 nM; to `O=C(c1cccc(-c2noc(C(F)(F)F)n2)c1)N1CCN(c2ccncc2)CC1`, 233 nM; to `Nc1nc(N)c2c3c(ccc2n1)NCCC3`, 734 nM.
In turn, `NC(=O)c1cccc(C(=O)Nc2cccc(-c3cccc(-c4nc5cc(C(F)(F)F)ccc5[nH]4)c3)c2)c1` displayed an XC50 of 126 nM.
Take `CN(/N=C/C=C/c1ccc(Cl)cc1)c1nc(NCCc2ccc(O)cc2)nc(N2CCNCC2)n1`: the XC50 is 873 nM.
`Cc1nc(-c2cccc(Nc3nccc(NCC(O)c4cccc(F)c4)n3)c2)cs1` (stereo not given) had an XC50 of 699 nM.
In turn, `COc1ccccc1C1CCN(C2CCC(NC(=O)c3cc4cc(C(C)C)ccc4[nH]3)CC2)CC1` (stereo not given) registered an XC50 of 850 nM.
To `Cc1ccc2nc3c(cc(C(=O)NCc4ccccc4)c(=N)n3CCCn3ccnc3)c(=O)n2c1` belongs 993 nM; to `COc1ccc(CNCc2cccc(-c3csc(-c4nc5ccccc5[nH]4)c3)c2)cc1`, 645 nM; to `Fc1ccc(CNc2ccc3ncc(-c4cccnc4)n3n2)cc1`, 928 nM.
As for `NC(=O)COc1c(C2CCN(CCN3CCC(CNC(=O)c4ccc(-c5ccc(C(F)(F)F)cc5)cc4)CC3)CC2)ccc2c1CCCC2`, the XC50 is 969 nM.
To `COc1ccc(C(=O)CCC(=O)N(Cc2ccc(-c3ccc(CNCCc4ccc(S(C)(=O)=O)cc4)cn3)cc2)C2CCN(Cc3ccccc3)CC2)cc1F` belongs 437 nM; to `COc1ccc(NS(=O)(=O)c2ccc(C(=O)Nc3ccc(OC(F)(F)F)cc3)cc2)cc1N1CCN(CC2CC2)CC1`, 1000 nM; to `CC(C)(C)c1nn(-c2ccc(Cl)cc2)c2[nH]c(=O)c(CNCc3cccs3)cc12`, 759 nM.
To `COc1ccc(-c2cnc3ccc(NCc4ccc(S(N)(=O)=O)cc4)nn23)cc1` belongs 796 nM; to `CC1(CCCCN2CCC(Oc3ccc(F)cc3F)CC2)C(=O)Nc2ccccc21` (stereo not given), 761 nM.
To `C[C@H](N[C@H]1CCCc2c1[nH]c1ccc(Br)cc21)c1ccccc1` belongs 222 nM; to `O=C(Nc1ccc2c(c1)OCO2)NC1CCN(c2ccnc(Nc3ccc(F)cc3)n2)C1` (stereo not given), 743 nM; to `C=Cc1ccccc1C1(O)CCN(CCCCNC(=O)c2ccc(-c3ccc(C#N)cc3)cc2)CC1`, 518 nM.
`O=C(/C=C/c1c(Cl)cccc1Cl)NC1CCC(CN2C3CCC2CC(c2c[nH]c4ccccc24)C3)CC1` (stereo not given) returned an XC50 of 844 nM.
To `Cc1ccc(O)c(C(=O)c2cnc3c(c2)c(-c2ccc(F)cc2)c(C#N)c(=O)n3C)c1` belongs 971 nM.
Turning to `COc1ccc2nc3cc(Cl)ccc3c(NCCN(C)C)c2c1`, the XC50 is 188 nM.
Next, `COc1cc2ccccc2c(CON2C(=N)N=C(N)NC2(C)C)c1OC`: 46.4 nM; `Cc1ccc(Nc2nccc(NCC(O)c3cccc(C)c3)n2)cc1` (stereo not given): 1020 nM; `COc1ccc(Nc2ncc3c(-c4cccc(NC(=O)Cc5cccc(F)c5)c4)c[nH]c3n2)cc1OC`: 567 nM.
The molecule `CC(C)N1CCN(CCCNc2c3ccccc3nc3ccccc23)CC1` displayed an XC50 of 233 nM.
Molecule `CCN(CC)/C(=N/C(=N)NCc1cccc(Cl)c1)NCCCCCCN/C(=N\C(=N)NCc1cccc(Cl)c1)N(CC)CC` gave an XC50 of 206 nM.
To `O=C(Nc1ccc(F)cc1)c1nc2ccccc2nc1Cl` belongs 1230 nM; to `O=C(CC1CCCC1)N(CC1CCN(Cc2ccc(C(F)(F)F)cc2)CC1)c1ccc(N2CCOCC2)c(F)c1`, 432 nM.
The molecule `CNC(=O)c1cc(S(=O)(=O)N2CCN(c3ccccn3)CC2)c(C)s1` showed an XC50 of 1160 nM.
In turn, `Cc1cccc2nc(-c3ccc(-c4cccc(NC(=O)Nc5ccc(Cl)c(Cl)c5)c4)s3)[nH]c12` had an XC50 of 594 nM.
Regarding `COc1ccc(-c2ccc(CNCc3ccc(F)cc3)cc2)cc1S(=O)(=O)NCCN1CCCC1`, the XC50 came to 731 nM.
With `Nc1cccc(CNCc2cccc(-c3cccc(-c4nc5ccccc5[nH]4)c3)c2)c1`, the XC50 came out at 615 nM.
Next, `CCNc1cc(C(=O)N[C@@H](Cc2ccccc2)[C@H](O)CNC(C)(C)Cc2ccccc2)cc(N2CCCC2=O)c1`: 262 nM; `CC(=O)Nc1ccc(C(=O)Nc2cccc(-c3ccc(-c4nc5ccccc5[nH]4)cc3)c2)cn1`: 206 nM.
For `COc1cc(F)c2ncc(Cl)c(CCN3CCC(NCc4cc5c(cn4)OCCO5)CC3)c2c1`, the XC50 was 481 nM.
To `COc1cc2c(cc1OC)C(C(=O)c1ccccc1)=NCC2` belongs 1090 nM; to `O=C(Cc1c[nH]cn1)Nc1cccc(-c2cccc(-c3nc4cc(F)ccc4[nH]3)c2)c1`, 777 nM.
As for `Cc1cc(-c2ccc3occ(CCN)c3c2)cnc1N`, the XC50 came to 877 nM.
With `CN1CCN(c2ccc(Nc3nc(N)c4ccn(C5CCC5)c4n3)cc2)CC1`, the XC50 worked out at 1220 nM.
Next, `Cc1cc2ncn(-c3nccc(NCc4ccc(F)c(C)c4)n3)c2cc1C`: 990 nM; `CCCC1CCNC(C(O)c2ccnc3ccc(OC)cc23)C1` (stereo not given): 426 nM.
Next, `COc1ccccc1N1CCN(c2cccc3c2nc(-c2cncc(C#N)c2)n3CCNCc2ccccc2)CC1`: 706 nM.
Regarding `CCCN1CCN(c2cc(S(=O)(=O)Nc3ccc(C(=O)NCc4cccc(C(F)(F)F)c4)cc3)ccc2OC)CC1`, the XC50 stood at 1010 nM.
Next, `O=c1cc(NCCCNCc2cccc3c2OC(F)(F)O3)[nH]c2ccccc12`: 947 nM; `NC(=O)C1CCN(Cc2ccc(-c3ccc(-c4nc5cc(C(F)(F)F)ccc5[nH]4)cc3)cc2)CC1`: 680 nM.
As for `C=CCN(c1ccc(OC)cc1)S(=O)(=O)c1ccc(Cl)c(C(=O)Nc2cccc(C#N)c2)c1`, the XC50 turned out to be 577 nM.
Regarding `CCNc1cc(C(=O)N[C@@H](Cc2ccccc2)[C@H](O)CNC2CCC(C(C)(C)C)CC2)cc(N2CCCC2=O)c1` (stereo not given in full), the XC50 turned out to be 444 nM.
Next, `Cc1cc(C2CCN(CCCCNC(=O)c3ccc(-c4ccc(C#N)cc4)cc3)CC2)c(C)cc1O`: 854 nM; `CCOC(=O)c1ccc(NC(=O)N[C@H]2CCN(CCCCCNC(=O)/C=C/c3ccc(Cl)c(Cl)c3)C2)cc1`: 735 nM; `Cc1ccc(N2C(N)=NC(N)=NC2c2ccccc2)cc1` (stereo not given): 56.6 nM.
Next, `CC(=O)Oc1c(C2CCN(CCCCNC(=O)c3ccc(NC(=O)c4ccc(Cl)cc4)cc3)CC2)ccc2c1CCCC2`: 764 nM.
For `Cn1nc(C(F)(F)F)c(-c2ccc(F)cc2)c1NC(=O)Nc1ccc(F)cc1`, the XC50 worked out at 754 nM.
To `CC(=O)c1cccc(NC(=O)NC2CCN(CCCCCNC(=O)/C=C/c3ccc(Cl)c(Cl)c3)CC2)c1` belongs 835 nM; to `CN1CCN(CCCCNc2c3ccccc3nc3ccccc23)CC1`, 704 nM; to `CC[C@H](NC(=O)c1c(CN2CCC(N3CCCCC3)CC2)c(-c2ccccc2)nc2cc(O)ccc12)c1ccccc1`, 1370 nM.
Next, `Cc1ccc(O)cc1C[C@@H]1C(=O)CC[C@@]2(C)[C@H]1CC[C@]2(C)O`: 957 nM; `CC(C)C[C@@H](C(=O)Nc1ccc(Cc2ccc(NC(=O)[C@H](CC(C)C)N(C)C(=O)OC(C)(C)C)cc2)cc1)N(C)C(=O)OC(C)(C)C`: 821 nM; `Cc1cccc(Cl)c1S(=O)(=O)Nc1cccc(CCN2CCC(N3CCCCC3)CC2)c1`: 1110 nM.
Next, `Cc1cc(-c2ccc(S(=O)(=O)Nc3cc4c(cc3OC(C)C)CCN(C)CC4)cc2)ccc1Cl`: 904 nM; `NC1=NC(c2ccccc2)(c2ccccn2)C(=O)N1CCCc1ccccc1` (stereo not given): 1040 nM.
Take `N=C(N)c1ccc(C=CC(=O)NCC(O)CNC(=O)C=Cc2ccc(C(=N)N)cc2)cc1` (stereo not given): the XC50 amounted to 31.4 nM.
To `COc1ccc(NC(=O)Nc2ccc(C)c(-c3ccc(C(=O)NCCN4CCCC4)cc3)c2)cc1` belongs 902 nM; to `Cc1c(CNCCCNc2nc3ccccc3[nH]2)sc(C(F)F)c1Br`, 293 nM; to `COc1cc2nc(NCCn3ccnc3C)nc(NCCc3ccccc3)c2cc1OC`, 727 nM.
The molecule `O=C(Nc1cccc(Cl)c1Cl)N1CCc2cc3nccc(N4CCN5CCC[C@H]5C4)c3cc21` had an XC50 of 1040 nM.
To `Cc1cccc(CCNC(=O)c2cc(Br)cc(N3CCN(c4ccncc4)CC3)c2)c1` belongs 874 nM; to `COc1ccccc1-c1sccc1C(=O)NC1(c2cc(Cl)cc(Cl)c2)CCCC1`, 938 nM.
